According to patent publication US5210193A, “Piperazine derivatives” (American Cyanamid Company, priority 1990, dated 1993):
In brackets after ≈: the same amount, converted by molar mass.

Columns and labels:
Experiment in all cases: in vitro antibacterial MIC, agar plate dilution
Assay type in all cases: cell-based
[1] = system: Escherichia coli CMC 84-16; conditions: Escherichia coli, CMC8416, 18 h, 35° C., read-out: MIC
Outline: (§1)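 Agar plate dilution on Mueller-Hinton agar, inoculum approximately 10^4 CFU per organism applied with a Steers replicator. MIC (mcg/ml) is the lowest compound concentration inhibiting visible growth after 18 hours at 35° C.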

[2] = system: Escherichia coli PRNT 311; conditions: PRNT311, 18 hours, 35° C., read-out: MIC
Outline: as §1

[3] = system: Escherichia coli ATCC 25922; conditions: Escherichia coli, ATCC25922, 18 h, 35° C., read-out: MIC
Outline: as §1

[4] = system: Morganella morganii VGH 84-11; conditions: VGH8411, 18 hours, 35° C., read-out: MIC
Outline: as §1

[5] = system: Acinetobacter calcoaceticus MOR 84-43; conditions: MOR8443, 18 hours, 35° C., read-out: MIC
Outline: as §1

[6] = system: Morganella morganii CMC 84-37; conditions: Morganella morganii, CMC8437, 18 h, 35° C., read-out: MIC
Outline: as §1

[7] = system: Staphylococcus aureus VGH 84-46; conditions: Staphylococcus aureus, VGH8446, 18 h, 35° C., read-out: MIC
Outline: as §1

[8] = system: Staphylococcus aureus CMC 83-127; conditions: Staphylococcus aureus, CMC83127, 18 h, 35° C., read-out: MIC
Outline: as §1

[9] = system: Staphylococcus epidermidis VGH 84-40; conditions: VGH8440, 18 hours, 35° C., read-out: MIC
Outline: as §1

[10] = system: Streptococcus faecalis ATTC 29212; conditions: Enterococcus faecalis, ATTC29212, 18 hours, 35° C., read-out: MIC
Outline: as §1

[11] = system: Enterobacter aerogenes VGH 84-36; conditions: Klebsiella aerogenes, VGH8436, 18 hours, 35° C., read-out: MIC
Outline: as §1

[12] = system: Staphylococcus aureus Smith; conditions: Staphylococcus aureus, 18 h, 35° C., read-out: MIC
Outline: as §1

[13] = system: Staphylococcus aureus CMC 83-128; conditions: CMC83128, 18 hours, 35° C., read-out: MIC
Outline: as §1

[14] = system: Serratia marcescens F 0-35; conditions: Serratia marcescens, F035, 18 h, 35° C., read-out: MIC
Outline: as §1

[15] = system: Enterobacter cloacae VGH 84-37; conditions: Enterobacter cloacae, VGH8437, 18 h, 35° C., read-out: MIC
Outline: as §1

[16] = system: Staphylococcus epidermidis CMC 83-135; conditions: CMC83135, 18 hours, 35° C., read-out: MIC
Outline: as §1

[17] = system: Klebsiella oxytoca MOR 84-28; conditions: MOR8428, 18 hours, 35° C.
Outline: as §1

[18] = system: Staphylococcus aureus ATTC 29213; conditions: Staphylococcus aureus, ATTC29213, 18 h, 35° C., read-out: MIC
Outline: as §1

[19] = system: Klebsiella pneumoniae MOR 84-4; conditions: Klebsiella pneumoniae, MOR844, 18 h, 35° C., read-out: MIC
Outline: as §1

[20] = system: Enterobacter cloacae K 84-10; conditions: Enterobacter cloacae, K8410, 18 h, 35° C., read-out: MIC
Outline: as §1

[21] = system: Escherichia coli CMC 84-11; conditions: Escherichia coli, CMC8411, 18 h, 35° C., read-out: MIC
Outline: as §1

[22] = system: Staphylococcus aureus VGH 84-45; conditions: Staphylococcus aureus, VGH8445, 18 h, 35° C., read-out: MIC
Outline: as §1

[23] = system: Pseudomonas aeruginosa LL-1244; conditions: Pseudomonas aeruginosa, LL1244, 18 h, 35° C., read-out: MIC
Outline: as §1

[24] = system: Serratia marcescens K 84-18; conditions: Serratia marcescens, K8418, 18 h, 35° C., read-out: MIC
Outline: as §1

Escherichia coli NAR 311 = conditions: NAR311, 18 hours, 35° C., read-out: MIC
Outline: as §1

[25] = system: Proteus rettgeri CMC 84-41; conditions: Providencia rettgeri, CMC8441, 18 h, 35° C., read-out: MIC
Outline: as §1

[26] = system: Streptococcus faecalis VGH 84-65; conditions: Enterococcus faecalis, VGH8465, 18 h, 35° C., read-out: MIC
Outline: as §1

[27] = system: Staphylococcus Spp saprophiticus VGH 84-50; conditions: 18 hours, 35° C., read-out: MIC
Outline: as §1

[28] = system: Staphylococcus epidermidis IO 83-58; conditions: IO8358, 18 hours, 35° C., read-out: MIC
Outline: as §1

Klebsiella pneumoniae AD = conditions: Klebsiella pneumoniae, 18 h, 35° C., read-out: MIC
Outline: as §1

[29] = system: Pseudomonas aeruginosa VGH 84-4; conditions: Pseudomonas aeruginosa, VGH844, 18 h, 35° C., read-out: MIC
Outline: as §1

`CN1CCN(c2cc3c(cc2F)c(=O)c(C(=O)O)cn3C2CC2)CC1c1ccsc1` (centres unmarked) [Example 66, 1-Cyclopropyl-6-fluoro-1,4-dihydro-4-oxo-7-[4-methyl-3-(3-thienyl)-1-piperazinyl]-3-quinolinecarboxylic acid] was tested, and the MIC [1] was 0.06 µg/mL (≈ 0.14 µM), the MIC [2] was 0.5 µg/mL (≈ 1.17 µM) and the MIC [3] was 0.12 µg/mL (≈ 0.281 µM). For the same molecule, the MIC [4] was 1 µg/mL (≈ 2.34 µM), the MIC [5] was 8 µg/mL (≈ 18.7 µM) and the MIC [6] was 0.5 µg/mL (≈ 1.17 µM). For the same molecule, the MIC [7] was 0.06 µg/mL (≈ 0.14 µM), the MIC [8] was 0.03 µg/mL (≈ 0.0702 µM) and the MIC [9] was 0.06 µg/mL (≈ 0.14 µM). It also gave an MIC [10] of 0.5 µg/mL (≈ 1.17 µM), an MIC [11] of 2 µg/mL (≈ 4.68 µM) and an MIC [12] of 0.06 µg/mL (≈ 0.14 µM). For the same molecule, the MIC [13] was 0.03 µg/mL (≈ 0.0702 µM), the MIC [14] was 2 µg/mL (≈ 4.68 µM) and the MIC [15] was 0.25 µg/mL (≈ 0.585 µM). For the same molecule, the MIC [16] was 0.06 µg/mL (≈ 0.14 µM), the MIC [17] was 0.12 µg/mL (≈ 0.281 µM) and the MIC [18] was 0.25 µg/mL (≈ 0.585 µM). The MIC [19] was 0.5 µg/mL (≈ 1.17 µM), the MIC [20] was 0.12 µg/mL (≈ 0.281 µM) and the MIC [21] was 0.12 µg/mL (≈ 0.281 µM). It also gave an MIC [22] of 0.03 µg/mL (≈ 0.0702 µM), an MIC [23] of 16 µg/mL (≈ 37.4 µM) and an MIC [24] of 2 µg/mL (≈ 4.68 µM). For the same molecule, the MIC (Escherichia coli NAR 311) was 0.5 µg/mL (≈ 1.17 µM), the MIC [25] was 1 µg/mL (≈ 2.34 µM) and the MIC [26] was 0.25 µg/mL (≈ 0.585 µM). The MIC [27] was 0.06 µg/mL (≈ 0.14 µM), the MIC [28] was 0.06 µg/mL (≈ 0.14 µM) and the MIC (Klebsiella pneumoniae AD) was 0.25 µg/mL (≈ 0.585 µM).

Work on `O=C(O)c1cn(-c2ccc(F)cc2)c2cc(N3CCNC(c4ccco4)C3)c(F)cc2c1=O` (centres unmarked) [Example 67, 6-Fluoro-1-(4-fluorophenyl)-7-[3-(2-furanyl)-1-piperazinyl]-1,4-dihydro-4-oxo-3-quinolinecarboxylic acid] yielded an MIC [1] of 0.12 µg/mL (≈ 0.266 µM), an MIC [2] of 0.25 µg/mL (≈ 0.554 µM) and an MIC [3] of 0.12 µg/mL (≈ 0.266 µM). The MIC [4] was 1 µg/mL (≈ 2.22 µM), the MIC [5] was 0.12 µg/mL (≈ 0.266 µM) and the MIC [6] was 1 µg/mL (≈ 2.22 µM). For the same molecule, the MIC [7] was 0.03 µg/mL (≈ 0.0665 µM), the MIC [8] was 0.03 µg/mL (≈ 0.0665 µM) and the MIC [9] was 0.06 µg/mL (≈ 0.133 µM). For the same molecule, the MIC [10] was 0.5 µg/mL (≈ 1.11 µM), the MIC [11] was 1 µg/mL (≈ 2.22 µM) and the MIC [12] was 0.03 µg/mL (≈ 0.0665 µM). For the same molecule, the MIC [13] was 0.06 µg/mL (≈ 0.133 µM), the MIC [14] was 2 µg/mL (≈ 4.43 µM) and the MIC [15] was 0.25 µg/mL (≈ 0.554 µM). The MIC [16] was 0.06 µg/mL (≈ 0.133 µM), the MIC [17] was 0.12 µg/mL (≈ 0.266 µM) and the MIC [18] was 0.06 µg/mL (≈ 0.133 µM). The MIC [19] was 0.5 µg/mL (≈ 1.11 µM), the MIC [20] was 0.25 µg/mL (≈ 0.554 µM) and the MIC [21] was 0.12 µg/mL (≈ 0.266 µM). It also gave an MIC [22] of 0.03 µg/mL (≈ 0.0665 µM), an MIC [23] of 4 µg/mL (≈ 8.86 µM) and an MIC [24] of 1 µg/mL (≈ 2.22 µM). It also gave an MIC (Escherichia coli NAR 311) of 2 µg/mL (≈ 4.43 µM), an MIC [25] of 1 µg/mL (≈ 2.22 µM) and an MIC [26] of 1 µg/mL (≈ 2.22 µM). For the same molecule, the MIC [27] was 0.25 µg/mL (≈ 0.554 µM), the MIC [28] was 0.06 µg/mL (≈ 0.133 µM) and the MIC (Klebsiella pneumoniae AD) was 0.25 µg/mL (≈ 0.554 µM).

Molecule `CCn1cc(C(=O)O)c(=O)c2c(F)c(F)c(N3CCSCC3)c(F)c21` [Example 89, 1-Ethyl-5,6,8-trifluoro-1,4-dihydro-4-oxo-7-(4-thiomorpholinyl)-3-quinolinecarboxylic acid] has an MIC [1] of 2 µg/mL (≈ 5.37 µM), an MIC [2] of 2 µg/mL (≈ 5.37 µM) and an MIC [29] of 32 µg/mL (≈ 85.9 µM). The MIC [3] was 1 µg/mL (≈ 2.69 µM), the MIC [4] was 2 µg/mL (≈ 5.37 µM) and the MIC [5] was 2 µg/mL (≈ 5.37 µM). For the same molecule, the MIC [6] was 4 µg/mL (≈ 10.7 µM), the MIC [8] was 0.5 µg/mL (≈ 1.34 µM) and the MIC [10] was 8 µg/mL (≈ 21.5 µM). The MIC [11] was 8 µg/mL (≈ 21.5 µM), the MIC [12] was 0.25 µg/mL (≈ 0.671 µM) and the MIC [13] was 1 µg/mL (≈ 2.69 µM). It also gave an MIC [14] of 2 µg/mL (≈ 5.37 µM), an MIC [15] of 4 µg/mL (≈ 10.7 µM) and an MIC [16] of 0.5 µg/mL (≈ 1.34 µM). The MIC [17] was 2 µg/mL (≈ 5.37 µM), the MIC [18] was 0.5 µg/mL (≈ 1.34 µM) and the MIC [19] was 4 µg/mL (≈ 10.7 µM). It also gave an MIC [20] of 2 µg/mL (≈ 5.37 µM), an MIC [21] of 1 µg/mL (≈ 2.69 µM) and an MIC [22] of 0.25 µg/mL (≈ 0.671 µM). It also gave an MIC [23] of 64 µg/mL (≈ 172 µM), an MIC [24] of 2 µg/mL (≈ 5.37 µM) and an MIC (Escherichia coli NAR 311) of 128 µg/mL (≈ 344 µM). The MIC [25] was 4 µg/mL (≈ 10.7 µM), the MIC [26] was 32 µg/mL (≈ 85.9 µM) and the MIC [27] was 4 µg/mL (≈ 10.7 µM). For the same molecule, the MIC [28] was 0.5 µg/mL (≈ 1.34 µM) and the MIC (Klebsiella pneumoniae AD) was 2 µg/mL (≈ 5.37 µM).
